The text below walks through data of patent publication US4851426A, “Ethoxycarbonyloxy ethyl esters of non-steroidal anti-inflammatory carboxylic acids and pharmaceutical compositions thereof” (Teva Pharmaceutical Industries, Ltd., priority 1982, dated 1989).

The subject of one data set is stomach ulcers in rats. As to the kind of experiment: Ulcerogenicity. The data set is classed as in vivo, rat. More on the design: key to UI max: ulcer index = mean sum of individual lesion lengths per rat. As to conditions: for UI50: 50% of ulcerogenic index max, + on value: dose response curve acquired bell shape. On the procedure: (§1) Methods: Six groups of 10 female Charles River rats weighing 170-230 g were used for each drug. […] Drugs were freshly suspended in water with 1% carboxymethyl cellulose and administered by stomach tube. Rats treated were sacrificed 5 hours after oral gavage. Ulcers were evaluated under a magnifying lens, after the stomach had been dissected out, opened along the lesser curvature and rinsed.
(§2) Ulcer index (UI) for each group was calculated as the mean sum of the lengths of the individual lesions in each rat.
(§3) Apparent maximal ulcerogenicity was calculated from regression analysis of the ascending parts of each dose-response curve.

The test system of data set [1] is inflamed foot of the rat (brewers' yeast). The experiment in a line: Analgesic action, pressure reaction threshold of yeast-inflamed foot (Basile-Analgesy-Meter). It counts as in vivo. More on the design: % of control 1 hr / % of control 3 hrs: concentration or dose not given beside the values. As to conditions: for % effect vs. parent compound 1 hr / % effect vs. parent compound 3 hrs: relative to parent; for % of control 1 hr / % of control 3 hrs: pressure reaction threshold, rat, oral. The source says:
Male rats, weighing 95-140 g, 10 rats per experimental group. The major reason for selecting rats of this weight range is the ease in handling smaller sized animals in this particular test. Animals are fed and provided drinking water ad libitium until time of testing. […] (Note: Brewers' yeast, locally obtainable from "Abir" breweries, may be kept under refrigeration for a period of at least 6 months). […] This instrument is basically a device which […] force that increases at a constant rate (a certain number of grams per second). […] Note: In case weight discs are being used to increase the force of pressure applied, the same number of discs should be employed throughout the entire experiment for both experimental and control animals. For detailed operation of the analgesy-meter reference to the specific instructions of the instrument given in the appendix. a. […] The differences in the various Mean Group Values between treatment and control group are analyzed for statistical significance using the Student t-Test.

A short description of another data set: Ulcerogenicity. The data set is classed as in vivo, rat. Further details: key to UI max: ulcer index = mean sum of individual lesion lengths per rat. As to conditions: rat, in vivo; dose causing UI50; female rats, oral, 5 hours; read-out: UD50. The protocol:
as §1, §2, §3

The nature of data set [2]: hydrolysis in aqueous acidic medium (simulated gastro-intestinal juices), HPLC. The data set is classed as physicochemical. As to conditions: for Ester (%): 0 min; for Ester (%), in words: same acidic conditions, 37° C.; for stability of ECOE ester against hydrolysis in acidic medium: acidic medium (simulated gastric juice). The protocol:
The rates of hydrolysis of 2-(acetyloxy)benzoic acid (Aspirin) ethoxy carbonyloxy ethyl ester to salicylethoxy carbonyloxy ethyl ester in the aqueous acidic medium (simulated gastro-intestinal juices) were determined by dissolving the ester to a pre-determined concentration in the acidic medium containing THF: aqueous conc. HCl=1:1 and the rate of hydrolysis at 37° C. was measured by the HPLC method.
The rates of hydrolysis of acetyl salicylic acid ethoxy carbonyloxy ethyl ester to salicyl-ethoxy carbonyloxy ethyl ester in aqueous acidic system (simulated gastrointestinal juices) are given in the following table:
Ethoxy carbonyloxy ethyl ester of Aspirin was dissolved to a predetermined concentration in an acidic aqueous medium (simulated gastric juice)--mixture THF; aqueous conc. HCl (1:1) and the rate of hydrolysis at 37° C. was measured by HPLC method.

Data set [3] in a line: Bioavailability-pharmacokinetic profile in rats (plasma salicylate, fluorometry). Conditions: in words, rat. The data set is classed as in vivo. On the procedure:
Methods: Female Charles River rats weighing 200-250 g were used. Rates were starved for a 24 hour period prior to each experiment, while water was allowed ad libitum. […] Plasma salicylate concentrations were measured by fluorometry according to Frey and El-Sayed (Arch. Int. Pharmacodyn. 230: 300, 1977). […] Statistical evaluation was effected by (unpaired) Student t test.

The mark [4] stands for this setting: dose causing max ulcerogenic index.
[5] abbreviates: dose-response of ulcer index, female rats, oral, 5 hours.
[6] abbreviates: THF: aqueous conc. HCl 1:1, 37° C.

As for `CCOC(=O)OC(C)OC(=O)Cc1c(C)n(C(=O)c2ccc(Cl)cc2)c2ccc(OC)cc12` (stereo not shown) [Indomethacin-ECOE ester, 1-(p-Chlorobenzoyl)-5-methoxy-2-methylindole-3-acetic acid 1'-ethoxycarbonyloxy ethyl ester], the UD max with stomach ulcers in rats (setting [4]) was 0.32 mmol/kg. Also, in the data set with stomach ulcers in rats (setting [5]), the Slope stood at 34 ± 13.8 Uxkg/mmole. The compound also had a UI max in the data set on stomach ulcers in rats (ulcerogenic index max) of 42.0. Also, in data set [1], the “% effect vs. parent compound 1 hr” value turned out to be 102%, the “% effect vs. parent compound 3 hrs” value came to 105%, the “% of control 1 hr” value turned out to be 130% and the “% of control 3 hrs” value was found to be 153%.
As to `CCOC(=O)OC(C)OC(=O)Cc1ccccc1Nc1c(Cl)cccc1Cl` (stereo not shown) [Diclofenac-ECOE ester], the UD max in the data set with stomach ulcers in rats (setting [4]) is 0.6 mmol/kg. The Slope in the data set on stomach ulcers in rats (setting [5]) worked out at 21.1 Uxkg/mmole. The UI max in the data set with stomach ulcers in rats (ulcerogenic index max) turned out to be 34.9. For the same compound, in data set [1], the “% effect vs. parent compound 1 hr” value was 86%, the “% effect vs. parent compound 3 hrs” value is listed as 82%, the “% of control 1 hr” value is 106% and the “% of control 3 hrs” value worked out at 110%.
Consider `CC(C)Cc1ccc(C(C)C(=O)O)cc1` (stereo not shown) [Ibuprofen, reference compound], for which, in the data set on stomach ulcers in rats (rat, in vivo), the UD max is 2.8 mmol/kg and the UI max amounted to 52.0. In the data set on stomach ulcers in rats (rat, in vivo, po), the Slope is on record as 38.1 ± 8.0 Uxkg/mmole. In addition, the TD50 at 5 h in the data set “Ulcerogenicity” amounted to 325 µmol/kg. For the same compound, in data set [1], the “% of control 1 hr” value was determined as 152% and the “% of control 3 hrs” value is on record as 145%.
For `CCOC(=O)OC(C)OC(=O)C(C)c1ccc(CC(C)C)cc1` (stereo not drawn) [Ibuprofen-ECOE ester, α-Methyl-4-(2-methylpropyl)benzene--acetic acid 1'-ethoxycarbonyloxy ethyl ester], the UI50 in the data set on stomach ulcers in rats is listed as 13.0. In addition, the UD max in the data set with stomach ulcers in rats (setting [4]) is 0.7 mmol/kg. In the data set with stomach ulcers in rats (setting [5]), this compound returned a Slope of 36.7 ± 8.5 Uxkg/mmole. The UI max in the data set with stomach ulcers in rats (ulcerogenic index max) was determined as 26.0. The TD50 at 5 h in the data set “Ulcerogenicity” stood at 300 µmol/kg. Further, in data set [1], the “% effect vs. parent compound 1 hr” value worked out at 115%, the “% effect vs. parent compound 3 hrs” value is recorded as 89%, the “% of control 1 hr” value is 176% and the “% of control 3 hrs” value was 129%.
In the case of `CCOC(=O)OC(C)OC(=O)c1ccccc1O` (stereo not shown) [1'-ethoxy carbonyloxy ethyl ester of salicyclic acid], in data set [2] (setting [6]), the “Ester (%)” value is reported as 100%. The “Ester (%), in words” value in data set [2] (150 min), in data set [2] (180 min), in data set [2] (210 min) and in data set [2] (240 min) was “unchanged” each time. Also, the “stability of ECOE ester against hydrolysis in acidic medium” value in data set [2] (in words, listed as 1'-ethoxycarbonyloxy ethyl ester of salicylic acid) was “stable in acidic medium”; in data set [2] (in words, listed as Salicyl 2-ethoxy carbonyloxy ethyl ester) it was “stable”; in data set [2] (in words, listed as salicyclic acid 2-ethoxycarbonyloxy ethyl ester), “stable”.
For the compound `COc1ccc2cc([C@H](C)C(=O)O)ccc2c1` [Naproxen, reference compound], the UI50 in the data set on stomach ulcers in rats worked out at 31.0. The same compound showed a UD max with stomach ulcers in rats (setting [4]) of 2.0 mmol/kg. Further, the Slope in the data set with stomach ulcers in rats (setting [5]) turned out to be 41.0 ± 14.2 Uxkg/mmole. The UI max in the data set with stomach ulcers in rats (ulcerogenic index max) was 62.0. Also, in data set [1], the “% of control 1 hr” value is on record as 116% and the “% of control 3 hrs” value was 133%.
`CCOC(=O)OC(C)OC(=O)C(C)c1ccc2cc(OC)ccc2c1` (single isomer, unassigned; (+)) [Naproxen-ECOE ester, (+)-6-Methoxy-α-methyl-2-naphthaleneacetic acid 1'-ethoxycarbonyloxy ethyl ester]: the UI50 in the data set with stomach ulcers in rats is recorded as 32.5. Besides, the UD max with stomach ulcers in rats (setting [4]) came to 1.0 mmol/kg. The compound also gave a Slope with stomach ulcers in rats (setting [5]) of 63.5 ± 0.59 Uxkg/mmole. Besides, in the data set on stomach ulcers in rats (ulcerogenic index max), the UI max stood at 65.0. For the same compound, in the data set “Ulcerogenicity”, the TD50 at 5 h came to 590 µmol/kg. Further, in data set [1], the “% effect vs. parent compound 1 hr” value is given as 108%, the “% effect vs. parent compound 3 hrs” value came out at 91%, the “% of control 1 hr” value was found to be 125% and the “% of control 3 hrs” value is 121%.
In the case of `CC(=O)Oc1ccccc1C(=O)O` [Aspirin, 2-(acetyloxy)benzoic acid, reference compound], in the data set with stomach ulcers in rats (rat, in vivo), the UD max was 0.4 mmol/kg and the UI max is 92.6. This compound returned a Slope in the data set on stomach ulcers in rats (rat, in vivo, po) of 33.7 ± 11.5 Uxkg/mmole. The TD50 at 5 h in the data set “Ulcerogenicity” was determined as 20 µmol/kg. In addition, in data set [1], the “% of control 1 hr” value is 126% and the “% of control 3 hrs” value is given as 100%.
For `CCOC(=O)OC(C)OC(=O)c1ccccc1OC(C)=O` (stereo not shown) [Aspirin-ECOE ester, 1'-ethoxy carbonyloxy ethyl ester of 2-(acetyloxy)benzoic acid (Aspirin)], in the data set on stomach ulcers in rats, the UI50 is listed as 20.5. The UD max with stomach ulcers in rats (setting [4]) is 0.4 mmol/kg. This compound returned a Slope in the data set on stomach ulcers in rats (setting [5]) of 13.7 ± 6.5 Uxkg/mmole. In addition, in the data set with stomach ulcers in rats (in words, vs parent acid), the “ulcerogenicity compared with parent” value is “much smaller ulcerogenic liability”. In addition, in the data set on stomach ulcers in rats (ulcerogenic index max), the UI max stood at 40.9. Also, the TD50 at 5 h in the data set “Ulcerogenicity” stood at 20 µmol/kg. The bioavailability of salicylate result in data set [3] (oral 0.4 mmole/kg) is “seems complete”. In data set [3] (oral, vs plain aspirin), the “rate of appearance of salicylate” value is listed as “seems slower”. The “Ester (%)” value in data set [2] (setting [6]) was 100%. Also, the remaining at 0.5 h in data set [2] (30 min, THF: aqueous conc. HCl 1:1, 37° C., read-out: Ester (%)) is 96%. Also, the remaining at 1 h in data set [2] (60 min, THF: aqueous conc. HCl 1:1, 37° C., read-out: Ester (%)) was 92%. Moreover, the remaining at 1.5 h in data set [2] (90 min, THF: aqueous conc. HCl 1:1, 37° C., read-out: Ester (%)) was 90%. For the same compound, in data set [2] (120 min, THF: aqueous conc. HCl 1:1, 37° C., read-out: Ester (%)), the remaining at 2 h is 90%. In addition, the remaining at 2.5 h in data set [2] (150 min, THF: aqueous conc. HCl 1:1, 37° C., read-out: Ester (%)) is 84%. In data set [2] (180 min, THF: aqueous conc. HCl 1:1, 37° C., read-out: Ester (%)), the remaining at 3 h was 82%. Besides, in data set [2] (210 min, THF: aqueous conc. HCl 1:1, 37° C., read-out: Ester (%)), the remaining at 3.5 h is 76%. Further, the “hydrolysis of acetyl group in acidic medium” value in data set [2] (in words, acetyl group, simulated gastric juices) is “readily hydrolysed off”. Also, the “stability of ECOE ester against hydrolysis in acidic medium” value in data set [2] (in words) was “not readily hydrolysed off”. For the same compound, in data set [1], the “% effect vs. parent compound 1 hr” value is 141%, the “% effect vs. parent compound 3 hrs” value was determined as 150%, the “% of control 1 hr” value stood at 178% and the “% of control 3 hrs” value was determined as 148%.
With `O=C(O)Cc1ccccc1Nc1c(Cl)cccc1Cl` [Diclofenac, reference compound], in the data set with stomach ulcers in rats (rat, in vivo), the UD max is 0.6 mmol/kg and the UI max turned out to be 61.8. The Slope with stomach ulcers in rats (rat, in vivo, po) was found to be 31.1 ± 8.7 Uxkg/mmole.
In the data set with stomach ulcers in rats (rat, in vivo), `COc1ccc2c(c1)c(CC(=O)O)c(C)n2C(=O)c1ccc(Cl)cc1` [Indomethacin, reference compound] gave a UD max of 0.32 mmol/kg and a UI max of 60. This compound gave a Slope with stomach ulcers in rats (rat, in vivo, po) of 50 Uxkg/mmole. For the same compound, in data set [1], the “% of control 1 hr” value is given as 128% and the “% of control 3 hrs” value is recorded as 146%.
